For series [1], the target named is T1, Inactive tyrosine-protein kinase transmembrane receptor ROR1 (Homo sapiens, UniProt Q01973). The series can be described thus: Induction of ROR1 internalization in human 786-0. Type of series: cell-based.
Series [2] deals with Tyrosine-protein kinase transmembrane receptor ROR2 (Homo sapiens, UniProt Q01974). The experiment in a line: Binding affinity to full length human His-tagged ROR2 (943 residues ) assessed as dissociation constant by SPR analysis. (In SPR one partner is held on a chip, and binding of the other changes the refractive index at the surface.)
The target in series [3] is T1, Inactive tyrosine-protein kinase transmembrane receptor ROR1. The experiment in a line: Induction of ROR1 internalization in human MIA PaCa-2. Type of series: cell-based.
Series [4] has the same target. The experiment in a line: Binding affinity to full length human His-tagged ROR1 (937 residues ) assessed as dissociation constant by SPR analysis.
Series [5] has the same target. The series can be described thus: Binding affinity to human ROR1 harbouring IGt2 domain at 100 nM relative to control.
Series [6] shares this target. The series can be described thus: Binding affinity to human ROR1 harbouring CRD domain at 100 nM relative to control.
Series [7] has the same target. The experiment in a line: Binding affinity to ROR1 (unknown origin).
For series [8] the target is unchanged. The experiment in a line: Induction of ROR1 internalization in human 786-0 cells at 4 to 37 degreeC. The format is cell-based.
The target is the same in series [9]. The series can be described thus: Binding affinity to human ROR1 expressed in HEK293 cells by cell based assay.
Series [10] in a line: Proteolytic stability in mouse serum assessed as half life. The format is ADME, cell-free.
The nature of series [11]: […] stability in mouse serum assessed as half life. The format is ADME, cell-free.
In a further series the test system is MIA PaCa-2. The experiment in a line: Induction of apoptosis in human MIA PaCa-2 cells assessed as activation of caspase3/7. The format is functional, cell-based.
Series [12] deals with T1, Inactive tyrosine-protein kinase transmembrane receptor ROR1. The experiment in a line: Induction of ROR1 internalization in human MDA-MB-231. Type of series: cell-based.

Calls of active or inactive are those of the source. The calls are words filed in the database; no cut-off is given here. Numbered stars: 1 amine (or outer) side, 2 acyl side, 3 side chain; on linkers, the order of the positions; unused ones are H or OH. Bridge positions count the residues as written; N and C are the ends. Square brackets hold non-standard residues; d marks the D form. Peptide text beside a SMILES is read from it. X1 = CN([C@@H](CC(N)O)C(=O)[*:2])[*:1]; NMeF = CN[C@@H](Cc1ccccc1)C(=O)O; Hpg = N[C@H](C(=O)O)c1ccc(O)cc1

T1 sequence (Q01973 whole entry): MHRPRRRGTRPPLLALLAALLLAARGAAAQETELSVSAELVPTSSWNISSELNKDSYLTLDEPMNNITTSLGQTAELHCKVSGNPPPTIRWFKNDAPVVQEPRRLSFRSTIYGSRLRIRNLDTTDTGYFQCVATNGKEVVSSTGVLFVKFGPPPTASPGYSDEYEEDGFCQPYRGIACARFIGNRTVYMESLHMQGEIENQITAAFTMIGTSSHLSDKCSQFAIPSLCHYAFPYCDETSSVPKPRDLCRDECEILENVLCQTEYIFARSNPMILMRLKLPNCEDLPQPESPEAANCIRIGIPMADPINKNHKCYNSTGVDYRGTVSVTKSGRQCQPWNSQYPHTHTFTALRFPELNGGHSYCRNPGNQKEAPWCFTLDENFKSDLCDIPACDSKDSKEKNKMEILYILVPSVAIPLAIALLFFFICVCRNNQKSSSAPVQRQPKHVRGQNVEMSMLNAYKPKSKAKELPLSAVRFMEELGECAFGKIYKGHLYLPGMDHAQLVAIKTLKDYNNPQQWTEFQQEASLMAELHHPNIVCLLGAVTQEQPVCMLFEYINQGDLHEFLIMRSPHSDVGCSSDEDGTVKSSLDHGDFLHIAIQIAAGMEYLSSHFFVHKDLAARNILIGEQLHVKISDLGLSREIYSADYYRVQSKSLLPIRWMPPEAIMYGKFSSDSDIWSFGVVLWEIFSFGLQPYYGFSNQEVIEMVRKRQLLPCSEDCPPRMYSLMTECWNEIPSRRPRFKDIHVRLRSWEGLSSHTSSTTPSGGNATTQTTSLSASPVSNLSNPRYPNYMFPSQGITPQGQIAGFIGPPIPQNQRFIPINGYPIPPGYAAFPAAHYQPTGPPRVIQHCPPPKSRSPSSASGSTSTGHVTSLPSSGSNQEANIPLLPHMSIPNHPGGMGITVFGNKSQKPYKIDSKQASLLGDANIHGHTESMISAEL
Tyrosine-protein kinase transmembrane receptor ROR2, sequence (Q01974 whole entry): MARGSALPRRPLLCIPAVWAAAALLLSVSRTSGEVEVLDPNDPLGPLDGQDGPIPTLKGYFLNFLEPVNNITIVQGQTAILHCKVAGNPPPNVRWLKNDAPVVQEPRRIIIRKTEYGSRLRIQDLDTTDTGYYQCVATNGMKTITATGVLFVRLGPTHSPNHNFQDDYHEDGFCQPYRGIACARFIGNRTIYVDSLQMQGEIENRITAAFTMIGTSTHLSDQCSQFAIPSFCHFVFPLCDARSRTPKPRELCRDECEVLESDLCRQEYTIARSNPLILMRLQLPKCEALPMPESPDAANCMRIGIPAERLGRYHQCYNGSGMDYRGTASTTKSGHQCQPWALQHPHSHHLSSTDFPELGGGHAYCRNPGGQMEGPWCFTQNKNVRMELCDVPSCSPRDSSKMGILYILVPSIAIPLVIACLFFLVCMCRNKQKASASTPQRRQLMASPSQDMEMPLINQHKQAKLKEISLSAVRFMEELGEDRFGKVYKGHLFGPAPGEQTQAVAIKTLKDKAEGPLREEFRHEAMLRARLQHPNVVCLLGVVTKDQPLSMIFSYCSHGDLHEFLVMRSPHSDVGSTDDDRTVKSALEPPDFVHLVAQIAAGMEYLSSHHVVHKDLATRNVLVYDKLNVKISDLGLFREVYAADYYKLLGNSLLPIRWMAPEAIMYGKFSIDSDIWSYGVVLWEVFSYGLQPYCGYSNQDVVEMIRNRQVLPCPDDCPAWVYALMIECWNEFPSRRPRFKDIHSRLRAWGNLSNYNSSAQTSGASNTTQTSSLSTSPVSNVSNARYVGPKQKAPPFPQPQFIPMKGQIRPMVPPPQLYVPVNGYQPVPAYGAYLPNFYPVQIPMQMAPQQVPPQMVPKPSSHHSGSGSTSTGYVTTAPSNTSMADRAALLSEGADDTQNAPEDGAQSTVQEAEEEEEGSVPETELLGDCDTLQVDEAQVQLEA

`CC(C)C[C@@H]1NC(=O)[C@H](Cc2ccc(O)cc2)NC(=O)[C@H](Cc2ccccc2)NC(=O)CSC[C@@H](C(=O)NCC(=O)NCC(=O)NCC(=O)N[C@H](CCCCNC(=O)c2ccc3c(c2)C(=O)OC32c3ccc(O)cc3Oc3cc(O)ccc32)C(N)=O)NC(=O)[C@H](CC(C)C)NC(=O)[C@H](Cc2ccccc2)N(C)C(=O)[C@H](Cc2ccc(O)cc2)NC(=O)[C@H](Cc2c[nH]c3ccccc23)NC(=O)CNC(=O)[C@H](CO)NC(=O)[C@H](Cc2ccc(O)cc2)NC(=O)[C@H](C(C)C)NC1=O`: the result in series [1] and in series [3] was inactive. Further, the Kd (in general, the concentration at which binding is half-saturated) in [2] is greater than 100 nM; in series [4], 34 nM.
For the molecule `CC(C)C[C@@H]1NC(=O)[C@H](CC(N)O)N(C)C(=O)[C@H](Cc2ccccc2)NC(=O)CNC(=O)[C@H](Cc2ccc(O)cc2)NC(=O)[C@H](Cc2ccccc2)NC(=O)CSC[C@@H](C(N)=O)NC(=O)[C@H](Cc2c[nH]c3ccccc23)NC(=O)[C@H](Cc2ccc(O)cc2)NC1=O` (some centres undefined) ({CH2CO}-FYGF[X1]LYWC-NH2; thioether N-9), the Activity in series [5] was found to be 75%; in [6] it was 125%. Further, the Kd in [2] was greater than 11 nM; in [4], 22 nM. The IC50 (commonly the point on the concentration scale where inhibition reaches its midpoint) in [7] worked out at 66 nM. For the same molecule, the outcome in series [8] was Active.
In [9], `CC(C)C[C@@H]1NC(=O)[C@H](Cc2ccc(O)cc2)NC(=O)[C@H](Cc2ccccc2)NC(=O)CSC[C@@H](C(=O)NCC(N)=O)NC(=O)[C@H](CC(C)C)NC(=O)[C@H](Cc2ccccc2)N(C)C(=O)[C@H](Cc2ccc(O)cc2)NC(=O)[C@H](Cc2c[nH]c3ccccc23)NC(=O)CNC(=O)[C@H](CO)NC(=O)[C@H](Cc2ccc(O)cc2)NC(=O)[C@H](C)NC1=O` ({CH2CO}-FYLAYSGWY[NMeF]LCG-NH2; thioether N-12) gave an IC50 of 12.3 nM.
On the same count and under the same terms, the same measure for `CC(C)C[C@@H]1NC(=O)[C@H](Cc2ccc(O)cc2)NC(=O)[C@H](Cc2ccccc2)NC(=O)CSC[C@@H](C(=O)NCC(N)=O)NC(=O)[C@H](CC(C)C)NC(=O)[C@H](Cc2ccccc2)N(C)C(=O)[C@H](Cc2ccc(O)cc2)NC(=O)[C@H](Cc2c[nH]c3ccccc23)NC(=O)CNC(=O)[C@H](CC(=O)O)NC(=O)[C@H](Cc2ccc(O)cc2)NC(=O)[C@H](C(C)C)NC1=O` ({CH2CO}-FYLVYDGWY[NMeF]LCG-NH2; thioether N-12): 14.4 nM.
Molecule `CC(C)C[C@@H]1NC(=O)[C@H](Cc2ccc(O)cc2)NC(=O)[C@H](Cc2ccccc2)NC(=O)CSC[C@@H](C(=O)NCC(N)=O)NC(=O)[C@H](C(C)C)NC(=O)[C@H](Cc2ccccc2)N(C)C(=O)[C@H](c2ccc(O)cc2)NC(=O)[C@H](Cc2c[nH]c3ccccc23)NC(=O)CNC(=O)[C@H](CC(N)=O)NC(=O)[C@H](Cc2ccc(O)cc2)NC(=O)[C@H](C(C)C)NC1=O` ({CH2CO}-FYLVYNGW[Hpg][NMeF]VCG-NH2; thioether N-12) gave an IC50 in series [9] of 5.3 nM.
As for `CC(C)C[C@@H]1NC(=O)[C@H](Cc2ccc(O)cc2)NC(=O)[C@H](Cc2ccccc2)NC(=O)CSC[C@@H](C(=O)NCC(N)=O)NC(=O)[C@H](CC(C)C)NC(=O)[C@H](Cc2ccccc2)N(C)C(=O)[C@H](Cc2ccc(O)cc2)NC(=O)[C@H](Cc2c[nH]c3ccccc23)NC(=O)CNC(=O)[C@H](CCC(N)=O)NC(=O)[C@H](Cc2ccc(O)cc2)NC(=O)[C@H](C(C)C)NC1=O` ({CH2CO}-FYLVYQGWY[NMeF]LCG-NH2; thioether N-12), in [9], the IC50 came out at 7.2 nM.
Still for that read-out and setting: the same measure for `CC(C)C[C@@H]1NC(=O)[C@H](Cc2ccc(O)cc2)NC(=O)[C@H](Cc2ccccc2)NC(=O)CSC[C@@H](C(N)=O)NC(=O)[C@H](CC(C)C)NC(=O)[C@H](Cc2ccccc2)N(C)C(=O)[C@H](Cc2ccc(O)cc2)NC(=O)[C@H](Cc2c[nH]c3ccccc23)NC(=O)CNC(=O)[C@H](CO)NC(=O)[C@H](Cc2ccc(O)cc2)NC(=O)[C@H](C(C)C)NC1=O` ({CH2CO}-FYLVYSGWY[NMeF]LC-NH2; thioether N-12): 7.2 nM.
`CC(C)C[C@@H]1NC(=O)[C@H](Cc2ccc(O)cc2)NC(=O)[C@H](Cc2ccccc2)NC(=O)CSC[C@@H](C(=O)NCC(N)=O)NC(=O)[C@H](CC(C)C)NC(=O)[C@H](Cc2ccccc2)N(C)C(=O)[C@H](Cc2ccc(O)cc2)NC(=O)[C@H](Cc2c[nH]c3ccccc23)NC(=O)CNC(=O)[C@H](CO)NC(=O)[C@H](Cc2ccc(O)cc2)NC(=O)[C@H](C(C)C)NC1=O` ({CH2CO}-FYLVYSGWY[NMeF]LCG-NH2; thioether N-12): the half-life in [10] and in series [11] was greater than 24 h throughout. In addition, the Activity in series [5] was found to be 68%; in [6] it was 104%. Besides, in the series with MIA PaCa-2, the outcome was inactive. Besides, the outcome in [12], in series [1] and in [8] was Active. In addition, in series [2], the dissociation constant Kd was 43 nM.

The values above are taken from ChEMBL document CHEMBL5356977, “Exploration of macrocyclic peptide binders to the extracellular CRD domain of human receptor tyrosine kinase-like orphan receptor 1 (ROR1)” (Bioorg Med Chem Lett, 2024).
